From EP4778922A1, “BICYCLIC COMPOUND, AND PREPARATION METHOD THEREFOR AND PHARMACEUTICAL USE THEREOF” (Shanghai Jeyou Pharmaceutical Co., Ltd., priority 2023, dated 2025)

Test system: 22RV1 cells
Experiment: Cell proliferation inhibition assay in 22RV1 cells (CellTiter-Glo, 7 days)
Assay type: cell-based, human
Conditions: Homo sapiens
Description: • 1. The human prostate cancer cell lines 22RV1 and LNCaP were purchased from ATCC. […] The cell concentration was adjusted to an appropriate concentration (determined based on the results of cell density optimization experiments), and the cells were seeded into a 96-well plate. A 100 µL cell suspension was added, resulting in 3000 cells per well. […] On the second day, for 22Rv1 cells, test compounds at different concentrations were added, and the cells were incubated at 37°C in a 5% CO2 incubator for 7 days; for LNCaP cells, test compounds at different concentrations were added first, and after 1 hour of treatment, 0.2 nM DHT was added. The cells were then incubated at 37°C in a 5% CO2 incubator for 7 days. • 4. After the incubation period, a volume of CellTiter-Glo detection reagent equal to the volume of the culture medium was added to each well. The plate was shaken and mixed thoroughly for 5 minutes, then incubated at room temperature for 10 minutes. Readings were taken using a PerkinElmer EnVision microplate reader. • 5.
The IC50 curve was fitted and the IC50 value was calculated using the software GraphPad Prism 8 with the calculation formula XY-analysis/Nonlinear regression (curve fit)/Dose response-Inhibition/log (inhibitor) vs. response-Variable slope (four parameters).

SMILES | IC50 (22Rv1, 168 h) [µM] | IC50 (168 h) [µM]
CC(C)(c1ccc(-c2ccc(OCc3ccnc(N4CC(OCCS(C)(=O)=O)C4)n3)cc2)cc1)c1cc(Cl)c(OCCCl)c(C#N)c1 [Compound 160] | 0.23 | 
CC(C)(c1ccc(-c2ccc(OCc3ccnc(N4CC5(CC(O)C5)C4)n3)cc2)cc1)c1cc(Cl)c(OCCCl)c(C#N)c1 [Compound 165] |  | 0.39
COC1CC2(C1)CN(c1nccc(COc3ccc(-c4ccc(C(C)(C)c5cc(Cl)c(OCCCl)c(C#N)c5)cc4)cc3)n1)C2 [Compound 166] |  | 1.21
CC(C)(c1ccc(-c2ccc(OCC3CCOCC3)cn2)cc1)c1cc(Cl)c(OCCCl)c(C#N)c1 [Compound 169] |  | 0.36
CC(C)(c1ccc(-c2ccc(OC[C@@H]3CCOC3)cc2)cc1)c1cc(Cl)c(OCCCl)c(C#N)c1 [Compound 171] |  | 1.24
CC(C)(c1ccc(-c2ccc(OCC3CN(C4CC4)C3)cc2)cc1)c1cc(Cl)c(OCCCl)c(C#N)c1 [Compound 172] |  | 1.23
CC(C)(c1ccc(-c2ccc(OCc3ccnc(P(C)(C)=O)n3)c(C#N)c2)cc1)c1cc(Cl)c(OCCCl)c(C#N)c1 [Compound 173] |  | 0.4
CC(C)(c1ccc(-c2ccc(OCC3CCOCC3)nc2)cc1)c1cc(Cl)c(OCCCl)c(C#N)c1 [Compound 184] |  | 0.92
CC(c1ccccc1)(c1ccc(-c2ccc(OCc3ccnc(P(C)(C)=O)n3)cc2)cc1)c1cc(Cl)c(OCCCl)c(C#N)c1 (centres unmarked) [Compound 190] |  | 0.63
CC(C)(c1ccc(-c2ccc(OCC3CC(CN4CC5(COC5)C4)C3)cc2)cc1)c1cc(Cl)c(OCCCl)c(C#N)c1 (centres unmarked) [Compound 196] |  | 0.86
CC(C)(c1ccc(-c2ccc(OCc3ccnc(N4CC5(C4)CC(F)(F)C5)n3)cc2)cc1)c1cc(Cl)c(OCCCl)c(C#N)c1 [Compound 198] |  | 0.53
CC(C)(c1ccc(-c2ccc(OCc3ccnc(N4CC5COCC5C4)n3)cc2)cc1)c1cc(Cl)c(OCCCl)c(C#N)c1 (centres unmarked) [Compound 199] |  | 1.01
CC(C)(c1ccc(-c2ccc(OCc3ccnc(N4CCN(S(C)(=O)=O)CC4)n3)cc2)cc1)c1cc(Cl)c(OCCCl)c(C#N)c1 [Compound 200] |  | 0.58
CC(C)(c1ccc(-c2ccc(OCc3ccnc(OC4CC5(COC5)C4)n3)cc2)cc1)c1cc(Cl)c(OCCCl)c(C#N)c1 [Compound 201] |  | 0.19
CC(C)(c1ccc(-c2ccc(OCCOc3nccc(N=S4(=O)CCOCC4)n3)cc2)cc1)c1cc(Cl)c(OCCCl)c(C#N)c1 [Compound 205] |  | 0.43
CC(C)(c1ccc(-c2ccc(OCc3ccnc(N4CC5(C4)CS(=O)(=O)C5)n3)nc2)cc1)c1cc(Cl)c(OCCCl)c(C#N)c1 [Compound 208] |  | 0.99
CC(C)(c1ccc(-c2ccc(OCc3ccnc(N4CCC(S(C)(=O)=O)CC4)n3)nc2)cc1)c1cc(Cl)c(OCCCl)c(C#N)c1 [Compound 210] |  | 0.23
CC(C)(c1ccc(-c2ccc(OCc3ccnc(N=S4(=O)CCNCC4)n3)nc2)cc1)c1cc(Cl)c(OCCCl)c(C#N)c1 [Compound 211] |  | 0.39
CC(C)(c1ccc(-c2ccc(OCC3CN(C4CCOCC4)C3)cc2)cc1)c1cc(Cl)c(OCCCl)c(C#N)c1 [Compound 212] |  | 0.44
CC(C)(c1ccc(-c2ccc(OCc3ccnc(N=S4(=O)CCN(CC(F)(F)F)CC4)n3)cc2)cc1)c1cc(Cl)c(OCCCl)c(C#N)c1 [Compound 217] |  | 0.43
CC(=O)N1CCS(=O)(=Nc2nccc(COc3ccc(-c4ccc(C(C)(C)c5cc(Cl)c(OCCCl)c(C#N)c5)cc4)cc3)n2)CC1 [Compound 218] |  | 0.37
CC(C)(c1ccc(-c2ccc(OCc3ccnc(N=S4(=O)CCN(C(=O)C5CC5)CC4)n3)cc2)cc1)c1cc(Cl)c(OCCCl)c(C#N)c1 [Compound 219] |  | 0.21

SMILES | IC50 (22Rv1, 168 h) [µM] | IC50 (168 h) [µM]
CC(C)(c1ccc(-c2ccc(OCc3ccnc(N=S4(=O)CCN(S(C)(=O)=O)CC4)n3)cc2)cc1)c1cc(Cl)c(OCCCl)c(C#N)c1 [Compound 220] |  | 0.17
CC(C)(c1ccc(-c2ccc(OCc3ccnc(N=S4(=O)CCN(C5COC5)CC4)n3)cc2)cc1)c1cc(Cl)c(OCCCl)c(C#N)c1 [Compound 223] |  | 0.51
CC(C)(c1ccc(-c2ccc(OCc3cc(P(C)(C)=O)ccn3)cc2)cc1)c1cc(Cl)c(OCCCl)c(C#N)c1 [Compound 224] |  | 1.33
CC(C)(c1ccc(-c2ccc(OCC3CC(N4CC5(C4)CS(=O)(=O)C5)C3)cc2)cc1)c1cc(Cl)c(OCCCl)c(C#N)c1 (centres unmarked) [Compound 230] |  | 0.52
CC(C)(c1ccc(-c2ccc(/C=C/c3cnc(N4CC5(C4)CS(=O)(=O)C5)nc3)cc2)cc1)c1cc(Cl)c(OCCCl)c(C#N)c1 [Compound 235] |  | 0.61
CC(C)(c1ccc(-c2ccc(OCc3ccnc(N=S4(=O)CCN(CC(F)F)CC4)n3)cc2)cc1)c1cc(Cl)c(OCCCl)c(C#N)c1 [Compound 239] |  | 1.01
CC(C)(c1ccc(-c2ccc(C#Cc3ccnc(N=S4(=O)CCCC4)n3)cc2)cc1)c1cnc2c(cnn2CCCl)c1 [Compound 240] |  | 0.65
CC(C)(c1ccc(-c2ccc(OCc3ccnc(N=S4(=O)CCN(CCC(F)(F)F)CC4)n3)cc2)cc1)c1cc(Cl)c(OCCCl)c(C#N)c1 [Compound 241] |  | 0.79
CC(C)(c1ccc(-c2ccc(OCc3ccnc(N=S4(=O)CCN(C5CC5)CC4)n3)cn2)cc1)c1cc(Cl)c(OCCCl)c(C#N)c1 [Compound 250] |  | 0.86
CC(C)(c1ccc(-c2ccc(OCc3ccnc(N=S4(=O)CCN(CC(O)C(F)(F)F)CC4)n3)cc2)cc1)c1cc(Cl)c(OCCCl)c(C#N)c1 (centres unmarked) [Compound 252] |  | 0.72
CNC(=O)CN1CCS(=O)(=Nc2nccc(COc3ccc(-c4ccc(C(C)(C)c5cc(Cl)c(OCCCl)c(C#N)c5)cc4)cc3)n2)CC1 [Compound 255] |  | 0.56
CC(C)(c1ccc(-c2ccc(OCc3ccnc(N=S4(=O)CCN(CC(F)(F)F)CC4)n3)nc2)cc1)c1cc(Cl)c(OCCCl)c(C#N)c1 [Compound 261] |  | 0.83
CC(C)(c1ccc(-c2ccc(OCc3ccnc(N4CCCS4(=O)=O)n3)cc2)cc1)c1cc(Cl)c(OCCCl)c(C#N)c1 [Compound 265] |  | 0.54
CC(C)(c1ccc(-c2ccc(OCc3ccnc(N4CCC(S(C)(=O)=O)C4)n3)cc2)cc1)c1cc(Cl)c(OCCCl)c(C#N)c1 (centres unmarked) [Compound 266] |  | 0.77
CC(C)(c1ccc(-c2ccc(Oc3ccc(-c4ccnc(P(C)(C)=O)n4)cc3)cc2)cc1)c1cc(Cl)c(OCCCl)c(C#N)c1 [Compound 267] |  | 0.17
CC(C)(c1ccc(-c2ccc(/C=C\c3cnc(P(C)(C)=O)nc3)c(C#N)c2)cc1)c1cc(Cl)c(OCCCl)c(C#N)c1 [Compound 269] |  | 0.39
CC(C)(c1ccc(-c2ccc(Oc3ccc(-c4cnc(P(C)(C)=O)nc4)cc3)cc2)cc1)c1cc(Cl)c(OCCCl)c(C#N)c1 [Compound 270] |  | 0.89
CC(C)(c1ccc(-c2cnc(OCc3ccc(-c4cnc(P(C)(C)=O)nc4)cc3)nc2)cc1)c1cc(Cl)c(OCCCl)c(C#N)c1 [Compound 274] |  | 0.13
CC(C)(c1ccc(-c2ccc(OCc3ccc(-c4cnc(P(C)(C)=O)nc4)cc3)cn2)cc1)c1cc(Cl)c(OCCCl)c(C#N)c1 [Compound 275] |  | 0.46
CC(C)(c1ccc(-c2ccc(OCc3ccc(-c4cnc(P(C)(C)=O)nc4)cc3)nc2)cc1)c1cc(Cl)c(OCCCl)c(C#N)c1 [Compound 277] |  | 1.31
CC(C)(c1ccc(-c2ccc(OCc3ccnc(P(C)(C)=O)n3)cc2)cc1)c1cc(F)c2c(cnn2CCCl)c1 [Compound 280] |  | 1.27
Cn1ncc2c1CCS(=O)(=Nc1nccc(COc3ccc(-c4ccc(C(C)(C)c5cc(Cl)c(OCCCl)c(C#N)c5)cc4)cc3)n1)C2 (centres unmarked) [Compound 281] |  | 0.5
